Key:
[1] = Rat plasma protein binding; assay type: in vitro ADME
From the text: (§1) Supplement KCHL_A_2122309_SM6747.docx, table 1 | column: SSI-5; SSI-3; SSI-4; SSI-1; SSI-6

[2] = target: Cav1.2 (Homo sapiens, UniProt Q13936); test: Global Counterscreen Cav1.2
From the text: as §1

[3] = target: (Homo sapiens, UniProt Q12809); test: Global Counterscreen MK499 binding
From the text: as §1

[4] = target: T1, Nav1.6 (Homo sapiens, UniProt Q9UQD0); test: Nav1.6 binding; parameters: expressed in transfected cells; host or cells: HEK cells; settings: read-out: Nav1.6 bind Ki
T1 sequence (Q9UQD0 whole entry): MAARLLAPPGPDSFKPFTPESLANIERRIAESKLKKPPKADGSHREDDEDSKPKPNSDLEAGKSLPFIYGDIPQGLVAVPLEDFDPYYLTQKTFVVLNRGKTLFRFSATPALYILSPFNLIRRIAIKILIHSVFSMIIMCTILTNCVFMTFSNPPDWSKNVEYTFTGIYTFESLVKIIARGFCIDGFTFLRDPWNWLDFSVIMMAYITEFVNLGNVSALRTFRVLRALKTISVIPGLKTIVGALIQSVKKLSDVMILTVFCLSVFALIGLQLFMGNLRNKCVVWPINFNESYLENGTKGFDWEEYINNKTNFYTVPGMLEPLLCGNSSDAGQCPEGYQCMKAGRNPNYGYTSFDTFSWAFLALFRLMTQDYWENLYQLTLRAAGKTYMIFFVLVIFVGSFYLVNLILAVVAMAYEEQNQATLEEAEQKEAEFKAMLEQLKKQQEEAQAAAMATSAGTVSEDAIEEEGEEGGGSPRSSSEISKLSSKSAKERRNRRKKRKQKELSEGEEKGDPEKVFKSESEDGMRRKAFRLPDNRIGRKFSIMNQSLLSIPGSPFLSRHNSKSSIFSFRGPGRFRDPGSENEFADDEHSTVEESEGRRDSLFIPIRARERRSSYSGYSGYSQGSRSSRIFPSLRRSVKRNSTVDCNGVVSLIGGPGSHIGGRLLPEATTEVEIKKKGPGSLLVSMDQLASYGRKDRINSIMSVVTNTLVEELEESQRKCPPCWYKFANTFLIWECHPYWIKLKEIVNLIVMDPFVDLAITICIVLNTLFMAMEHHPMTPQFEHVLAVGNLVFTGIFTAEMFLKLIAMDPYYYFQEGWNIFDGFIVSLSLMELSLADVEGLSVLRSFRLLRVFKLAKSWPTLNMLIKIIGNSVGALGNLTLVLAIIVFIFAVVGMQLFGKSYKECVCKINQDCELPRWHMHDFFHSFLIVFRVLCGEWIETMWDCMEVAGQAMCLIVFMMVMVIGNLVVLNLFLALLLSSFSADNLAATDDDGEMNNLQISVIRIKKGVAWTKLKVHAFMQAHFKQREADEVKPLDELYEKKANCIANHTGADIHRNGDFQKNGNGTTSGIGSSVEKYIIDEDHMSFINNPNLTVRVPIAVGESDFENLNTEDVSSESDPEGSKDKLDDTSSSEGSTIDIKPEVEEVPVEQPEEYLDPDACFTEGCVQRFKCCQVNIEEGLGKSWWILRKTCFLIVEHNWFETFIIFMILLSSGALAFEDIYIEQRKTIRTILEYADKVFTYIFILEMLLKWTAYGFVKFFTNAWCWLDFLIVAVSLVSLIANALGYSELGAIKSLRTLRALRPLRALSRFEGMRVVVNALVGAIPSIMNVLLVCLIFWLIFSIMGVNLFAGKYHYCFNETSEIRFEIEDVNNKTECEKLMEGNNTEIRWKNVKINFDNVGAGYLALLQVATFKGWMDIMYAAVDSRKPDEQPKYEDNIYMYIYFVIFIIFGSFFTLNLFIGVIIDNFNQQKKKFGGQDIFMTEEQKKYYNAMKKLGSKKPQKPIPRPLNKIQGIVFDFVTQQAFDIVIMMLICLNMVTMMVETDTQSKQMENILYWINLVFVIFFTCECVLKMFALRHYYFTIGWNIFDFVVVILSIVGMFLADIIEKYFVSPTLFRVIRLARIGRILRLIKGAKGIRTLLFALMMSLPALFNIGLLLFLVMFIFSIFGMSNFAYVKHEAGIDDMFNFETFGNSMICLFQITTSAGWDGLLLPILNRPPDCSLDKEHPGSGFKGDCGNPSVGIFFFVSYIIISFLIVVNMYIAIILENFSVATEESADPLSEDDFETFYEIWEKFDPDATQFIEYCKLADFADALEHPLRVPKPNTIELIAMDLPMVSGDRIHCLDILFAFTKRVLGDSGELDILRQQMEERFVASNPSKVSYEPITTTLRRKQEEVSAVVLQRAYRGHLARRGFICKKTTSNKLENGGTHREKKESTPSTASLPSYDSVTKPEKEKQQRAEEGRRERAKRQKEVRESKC
From the text: as §1

[5] = target: T1, Nav1.6; test: PX Nav1.6 IC50 (supplement); assay type: cell-based; parameters: expressed in transfected cells; host or cells: HEK cells
Experimental: Sodium currents were recorded from recombinant Human Embryonic Kidney 293 cell lines stably overexpressing the respective sodium channel type (NaV1.2, 1.5, 1.4, 1.6, 1.7). Recording solutions were comprised of the following (in mM): Internal solution: 30 CsCl, 5 HEPES, 10 EGTA, 120 CsF, 5 NaF, 2 MgCl2, pH = 7.3 with CsOH; External solution 1: 40 NaCl, 120 NMDG, 1 KCl, 0.5 MgCl2, 5 HEPES, 2.7 CaCl2, pH to 7.3 with NaOH, used for NaV1.5 recordings; External solution 2: 150 NaCl, 5 KCl, 2 CaCl2, 1 MgCl2, 10 HEPES, 12 Dextrose, pH 7.3 with NaOH, used for NaV1.7, 1.6, 1.4, and 1.2 recordings.
Whole-cell currents were recorded from cells stably expressing NaV channels using the PatchXpress 7000A automated patch clamp platform (Molecular Devices, LLC; Sunnyvale, CA). A portable air-conditioning unit was installed on the PatchXpress instruments to maintain the temperature of the headstage at 21°C. Cells were voltage clamped at −60 mV for cell detection and sealing. At the start of each recording, a voltage curve and an inactivation curve was run for each cell to determine the voltage at which 50% of the channels reside in the inactivated state (V0.5 inact). […]
NaV1.7, NaV1.6, NaV1.4: Compound potency was measured in a hyperpolarized-state protocol where the holding potential for each cell was set to V0.5inact – 20 mV. […]

[6] = target: hERG (Homo sapiens, UniProt Q12809); test: Functional Ion Channel Panel hERG; assay type: biochemical; settings: read-out: hERG %inh
From the text: (§2) Supplement KCHL_A_2122309_SM6747.docx, table 1 | column: SSI-5; SSI-3; SSI-4; SSI-1

[7] = target: Iks (Homo sapiens, UniProt P51787); test: Functional Ion Channel Panel Iks; assay type: biochemical; settings: read-out: Iks %inh
Chain of Iks (P51787 whole entry): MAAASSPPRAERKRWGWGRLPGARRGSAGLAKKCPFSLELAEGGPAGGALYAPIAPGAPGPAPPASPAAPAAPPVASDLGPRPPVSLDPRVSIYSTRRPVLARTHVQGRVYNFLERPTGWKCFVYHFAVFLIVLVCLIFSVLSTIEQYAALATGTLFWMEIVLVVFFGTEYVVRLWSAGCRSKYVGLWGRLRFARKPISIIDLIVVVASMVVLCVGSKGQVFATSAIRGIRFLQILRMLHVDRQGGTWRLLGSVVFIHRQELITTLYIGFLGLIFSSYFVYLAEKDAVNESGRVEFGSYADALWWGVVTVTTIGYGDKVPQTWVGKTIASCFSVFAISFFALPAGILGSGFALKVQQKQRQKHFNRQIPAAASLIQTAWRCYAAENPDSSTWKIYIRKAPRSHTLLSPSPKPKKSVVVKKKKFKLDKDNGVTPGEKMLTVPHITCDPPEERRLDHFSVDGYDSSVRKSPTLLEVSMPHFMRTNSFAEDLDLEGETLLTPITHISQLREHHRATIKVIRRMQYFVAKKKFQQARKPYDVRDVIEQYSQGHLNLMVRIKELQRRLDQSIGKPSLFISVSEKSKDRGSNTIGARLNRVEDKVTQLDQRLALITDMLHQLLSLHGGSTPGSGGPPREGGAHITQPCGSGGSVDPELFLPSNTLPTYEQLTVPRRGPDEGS
From the text: as §2

[8] = target: T2, Adrenergic α1D (Homo sapiens, UniProt P25100); test: Panlabs selection; assay type: binding
T2 construct: Panlabs
From the text: as §2

[9] = target: T3, Adrenergic α2A (Homo sapiens, UniProt P08913); test: Panlabs selection; assay type: binding
T3 construct: Panlabs
From the text: as §2

[10] = target: T4, Adrenergic α2B (Homo sapiens, UniProt P18089); test: Panlabs selection; assay type: binding
T4 construct: Panlabs
From the text: as §2

[11] = target: T5, Adrenergic α2C (Homo sapiens, UniProt P18825); test: Panlabs selection; assay type: binding
T5 construct: Panlabs
From the text: as §2

[12] = target: T6, Histamine H1 (Homo sapiens, UniProt P35367); test: Panlabs selection; assay type: binding
T6 construct: Panlabs
From the text: as §2

[13] = target: T7, Melanocortin MC5 (Homo sapiens, UniProt P33032); test: Panlabs selection; assay type: binding
T7 construct: Panlabs
From the text: as §2

[14] = target: Serotonin 5-HT2B (Homo sapiens, UniProt P41595); test: Panlabs selection; assay type: binding
Chain of Serotonin 5-HT2B (P41595 whole entry): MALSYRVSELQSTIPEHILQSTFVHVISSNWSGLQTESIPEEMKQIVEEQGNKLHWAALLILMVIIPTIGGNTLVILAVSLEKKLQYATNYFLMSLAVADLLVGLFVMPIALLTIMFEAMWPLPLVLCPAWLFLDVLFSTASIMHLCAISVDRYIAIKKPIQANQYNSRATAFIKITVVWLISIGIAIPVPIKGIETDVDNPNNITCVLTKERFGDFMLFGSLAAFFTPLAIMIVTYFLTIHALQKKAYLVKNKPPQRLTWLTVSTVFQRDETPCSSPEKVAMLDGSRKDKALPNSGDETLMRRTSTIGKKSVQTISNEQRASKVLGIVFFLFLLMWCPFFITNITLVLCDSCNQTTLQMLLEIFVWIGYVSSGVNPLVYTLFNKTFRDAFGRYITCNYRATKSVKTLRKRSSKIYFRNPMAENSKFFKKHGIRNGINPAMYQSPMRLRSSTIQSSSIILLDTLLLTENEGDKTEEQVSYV
From the text: as §2

[15] = target: Transporter, Choline (Homo sapiens, UniProt Q9GZV3); test: Panlabs selection; assay type: binding
From the text: as §2

[16] = target: Transporter, Dopamine DAT (Homo sapiens, UniProt Q01959); test: Panlabs selection; assay type: binding
From the text: as §2

[17] = target: Transporter, Norepinephrine NET (Homo sapiens, UniProt P23975); test: Panlabs selection; assay type: binding
Chain of Transporter, Norepinephrine NET (P23975 whole entry): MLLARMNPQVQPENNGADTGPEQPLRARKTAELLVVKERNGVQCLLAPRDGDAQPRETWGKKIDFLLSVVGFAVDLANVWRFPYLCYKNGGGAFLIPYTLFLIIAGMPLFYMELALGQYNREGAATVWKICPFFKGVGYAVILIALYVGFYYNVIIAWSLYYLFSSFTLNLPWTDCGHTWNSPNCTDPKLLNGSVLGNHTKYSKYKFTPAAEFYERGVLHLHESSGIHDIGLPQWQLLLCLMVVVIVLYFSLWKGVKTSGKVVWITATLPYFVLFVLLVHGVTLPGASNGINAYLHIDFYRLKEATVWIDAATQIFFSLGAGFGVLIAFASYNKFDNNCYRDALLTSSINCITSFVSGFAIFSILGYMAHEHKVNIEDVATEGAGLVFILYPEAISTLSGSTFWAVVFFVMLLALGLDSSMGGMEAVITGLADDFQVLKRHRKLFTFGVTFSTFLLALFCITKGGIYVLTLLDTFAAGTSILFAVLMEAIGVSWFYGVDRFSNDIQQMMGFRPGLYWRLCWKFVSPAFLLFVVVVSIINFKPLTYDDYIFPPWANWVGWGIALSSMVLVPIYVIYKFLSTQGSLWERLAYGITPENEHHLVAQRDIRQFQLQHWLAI
From the text: as §2

[18] = target: Nicotinic Acetylcholine; test: Panlabs selection; assay type: binding
From the text: Supplement KCHL_A_2122309_SM6747.docx, table 1 | column: SSI-5; SSI-4; SSI-1

[19] = target: T8, NAChR α3β4 (Homo sapiens, UniProt P30926+P32297); test: Panlabs selection; assay type: binding
T8 construct: Panlabs

Chain of (Homo sapiens, UniProt Q12809) (Q12809 whole entry): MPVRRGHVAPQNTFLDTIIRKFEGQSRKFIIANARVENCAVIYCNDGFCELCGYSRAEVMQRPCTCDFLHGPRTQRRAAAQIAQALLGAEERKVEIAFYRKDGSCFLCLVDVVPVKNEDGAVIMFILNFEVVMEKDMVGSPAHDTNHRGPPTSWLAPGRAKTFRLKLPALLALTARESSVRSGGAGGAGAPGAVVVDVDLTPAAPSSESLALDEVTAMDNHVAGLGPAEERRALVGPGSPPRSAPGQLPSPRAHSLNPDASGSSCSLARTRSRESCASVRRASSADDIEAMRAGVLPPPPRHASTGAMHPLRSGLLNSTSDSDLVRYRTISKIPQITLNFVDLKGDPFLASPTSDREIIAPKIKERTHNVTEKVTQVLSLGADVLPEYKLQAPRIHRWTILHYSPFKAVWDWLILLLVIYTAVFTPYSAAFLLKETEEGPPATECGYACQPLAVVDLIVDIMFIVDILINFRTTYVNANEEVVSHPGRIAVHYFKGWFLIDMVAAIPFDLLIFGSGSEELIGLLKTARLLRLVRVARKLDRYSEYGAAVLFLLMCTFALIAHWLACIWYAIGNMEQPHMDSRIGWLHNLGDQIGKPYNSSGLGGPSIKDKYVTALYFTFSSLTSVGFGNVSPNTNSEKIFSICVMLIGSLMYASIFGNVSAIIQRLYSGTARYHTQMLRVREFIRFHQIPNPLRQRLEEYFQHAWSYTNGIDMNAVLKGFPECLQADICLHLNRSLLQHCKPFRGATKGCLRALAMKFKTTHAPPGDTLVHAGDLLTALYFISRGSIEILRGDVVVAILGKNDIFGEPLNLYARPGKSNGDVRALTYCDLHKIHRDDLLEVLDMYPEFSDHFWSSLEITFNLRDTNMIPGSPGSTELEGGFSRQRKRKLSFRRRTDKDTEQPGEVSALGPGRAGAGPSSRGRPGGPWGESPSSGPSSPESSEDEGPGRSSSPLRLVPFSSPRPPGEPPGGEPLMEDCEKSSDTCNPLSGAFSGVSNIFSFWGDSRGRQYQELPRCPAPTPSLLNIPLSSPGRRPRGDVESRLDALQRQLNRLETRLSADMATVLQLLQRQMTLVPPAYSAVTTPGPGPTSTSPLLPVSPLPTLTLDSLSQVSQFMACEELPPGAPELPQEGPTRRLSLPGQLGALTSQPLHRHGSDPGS

Structure (SMILES) | fraction unbound [1] | IC50 [2] | Ki [3] | Ki [4] | IC50 [5] | inhibition at 30 µM [6] | inhibition at 30 µM [7] | Ki [8] | Ki [9] | Ki [10] | Ki [11] | Ki [12] | Ki [13] | Ki [14] | Ki [15] | Ki [16] | Ki [17] | Ki [18] | Ki [19]
COc1ccc(CCC(c2cccc3c2CNCC3)n2c(=O)oc3cc(S(=O)(=O)Nc4ncns4)c(F)cc32)cc1 (stereo not drawn) [SSCI-6] | 0.018 | 24 µM | 17 µM | 0.08 nM | 0.018 to 0.036 µM |  |  |  |  |  |  |  |  |  |  |  |  |  | 
O=S(=O)(Nc1nccs1)c1cc(Cl)c(NCCCCNC[C@H]2CCCN2)cc1F [SSCI-1] | 0.067 | > 30 µM | > 54 µM | 47.1 nM | 18.2 µM | 22% | -1% | > 10 µM | > 10 µM | > 10 µM | > 10 µM | > 10 µM | > 10 µM | > 10 µM | 3.19 µM | 0.98 µM | 3.93 µM | > 10 µM | > 10 µM

Reference: article PMC9578445, “Association of respiratory failure with inhibition of NaV1.6 in the phrenic nerve” (Channels, 2022)
